target: T1, BTK (Mus musculus, UniProt P35991); test: In vivo degradation of BTK in mouse PD experiments with oral dosing; conditions: oral dose 1 mg/kg, 6 h, splenocytes, HTRF
T1 construct: from tissue; host or cells: mouse blood B cells / splenocytes (CD-1 or BALB/c)
Experimental: A method of determining the pharmacodynamic profile of BTK degraders was performed by dosing either CD-1 or BALB/c mice with CTM. The CTM was prepared in a suitable formulation and was administered via oral gavage (PO) at a suitable dose level and frequency as informed by prior pharmacokinetic and tolerability studies. Following administration of CTM, BTK levels in blood or splenocytes are measured using flow cytometry or HTRF. For assessment of BTK levels via flow cytometry, either whole blood or splenocytes were first treated with ACK RBC lysis buffer to facilitate lysing of red blood cells. Remaining cells were then stained with fluorophore-conjugated antibodies against CD45, TCR beta and CD45R (B220). Cell pellets were washed with 1×PBS, fixed, and permeabilized for twenty-four hours with Foxp3/Transcription Factor Fixation/Permeabilization Kit. Cells were then stained intracellularly with unconjugated BTK antibody and detected with a fluorophore-conjugated secondary antibody. Stained cells were run on an Attune N×T Acoustic Focusing Flow Cytometer (Thermo-Fisher A29004), and data was analyzed using FlowJo (v10.5.3) and GraphPad Prism (v7.00) software. Lymphocytes were gated for B cells defined as CD45+ TCR beta−B220+ and T cells as CD45+ TCR beta+B220−. The BTK geometric mean fluorescence intensity (MFI) was calculated for B and T cells. Percent BTK degradation for each compound-treated sample was calculated using the equation described below: % Degradation=100*(Treated sample B cell BTK MFI-treated sample T cell BTK MFI)/Vehicle B cell BTK MFI-Vehicle T cell BTK MFI)
This example evaluates in vivo activity of BTK CTMs via a direct mouse PD measurement following oral dosing
Screens were completed at 90 mg/kg for six hours, and then changed to lower doses/longer time points after seeing strong BTK degradation activity with an initial set of compounds. This assay was useful in selecting compounds for in vivo efficacy experiments.

T1 sequence (P35991 whole entry): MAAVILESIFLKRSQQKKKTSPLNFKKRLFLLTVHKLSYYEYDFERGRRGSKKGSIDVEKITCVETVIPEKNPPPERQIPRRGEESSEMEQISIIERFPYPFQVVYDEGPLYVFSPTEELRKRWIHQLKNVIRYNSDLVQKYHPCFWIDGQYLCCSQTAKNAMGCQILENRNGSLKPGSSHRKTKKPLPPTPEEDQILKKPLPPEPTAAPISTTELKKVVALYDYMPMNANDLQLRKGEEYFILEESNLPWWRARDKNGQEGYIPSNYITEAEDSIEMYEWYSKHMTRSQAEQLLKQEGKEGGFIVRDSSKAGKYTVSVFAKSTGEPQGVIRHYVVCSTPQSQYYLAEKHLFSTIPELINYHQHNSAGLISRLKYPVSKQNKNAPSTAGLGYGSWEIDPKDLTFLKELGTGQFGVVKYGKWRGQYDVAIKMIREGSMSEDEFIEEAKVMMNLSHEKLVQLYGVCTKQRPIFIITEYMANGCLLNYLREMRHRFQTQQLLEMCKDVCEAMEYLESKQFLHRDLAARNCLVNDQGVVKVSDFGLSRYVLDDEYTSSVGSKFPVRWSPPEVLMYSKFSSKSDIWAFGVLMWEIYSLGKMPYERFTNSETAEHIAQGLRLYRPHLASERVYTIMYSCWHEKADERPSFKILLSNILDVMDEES

Structure (SMILES)	% BTK Remaining [%]
CN1CCN([C@@H]2CCCN(c3cnc(C(N)=O)c(Nc4ccc(C5CCN(C[C@@H]6CCCN(c7ccc8c(c7)C(=O)N(C7CCC(=O)NC7=O)C8=O)C6)CC5)cc4)n3)C2)C1=O (stereo partly drawn) [Compound 32, 3-((4-(1-(((3S)-1-(2-(2,6-dioxopiperidin-3-yl)-1,3-dioxoisoindolin-5-yl)piperidin-3-yl)methyl)piperidin-4-yl)phenyl)amino)-5-((R)-3-(3-methyl-2-oxoimidazolidin-1-yl)piperidin-1-yl)pyrazine-2-carboxamide]	93
CS(=O)(=O)c1ccc(Nc2nc(N3CCC[C@@H](NC(=O)OCC4CCN(c5ccc6c(c5)C(=O)N([C@H]5CCC(=O)NC5=O)C6=O)CC4)C3)cnc2C(N)=O)cc1 [Compound 218]	97
CN1CCN([C@@H]2CCCN(c3cnc(C(N)=O)c(Nc4ccc(C5CCN(C[C@@H]6[C@H]7CN(c8ccc9c(c8)C(=O)N(C8CCC(=O)NC8=O)C9=O)C[C@@H]67)CC5)cc4)n3)C2)C1=O (some centres unmarked) [Compound 39]	79
CN1CCN([C@@H]2CCCN(c3cnc(C(N)=O)c(Nc4ccc(N5CCN(C[C@H]6CCN(c7ccc8c(c7)C(=O)N(C7CCC(=O)NC7=O)C8=O)C6)CC5)nc4)n3)C2)C1=O (some centres unmarked) [Compound 113]	70
CN1CCN([C@@H]2CCCN(c3cnc(C(N)=O)c(Nc4ccc(N5CCC6CCN(c7cccc8c7C(=O)N(C7CCC(=O)NC7=O)C8=O)CC6C5)cc4)n3)C2)C1=O (some centres unmarked) [Compound 105]	85
CN1CCN([C@H]2CCCN(c3cnc(C(N)=O)c(Nc4ccc(N5CC6CN(c7ccc8c(c7)C(=O)N(C7CCC(=O)NC7=O)C8=O)CC6C5)cc4)n3)C2)C1=O (some centres unmarked) [Compound 79]	102
CN1CCN([C@@H]2CCCN(c3cnc(C(N)=O)c(Nc4ccc(N5CCN(CCC6CCN(c7ccc8c(c7)C(=O)N(C7CCC(=O)NC7=O)C8=O)CC6)CC5)cc4)n3)C2)C1=O (some centres unmarked) [Compound 40]	82
CN1CCN([C@@H]2CCCN(c3cnc(C(N)=O)c(Nc4ccc(N5CC6CN(Cc7ccc8c(c7)C(=O)N(C7CCC(=O)NC7=O)C8=O)CC6C5)cc4)n3)C2)C1=O (some centres unmarked) [Compound 76]	100

same assay, conditions: oral dose 3 mg/kg, 6 h, blood, flow cytometry

Structure (SMILES)	% BTK Remaining [%]
Cn1cc(Nc2nc(N3CCC[C@@H](N4CC5(CN(CC6CN(c7ccc8c(c7)C(=O)N(C7CCC(=O)NC7=O)C8=O)C6)C5)OC4=O)C3)cnc2C(N)=O)cn1 (stereo partly drawn) [compound 213, 5-((3R)-3-(2-((1-(2-(2,6-dioxopiperidin-3-yl)-1,3-dioxoisoindolin-5-yl)azetidin-3-yl)methyl)-6-oxo-5-oxa-2,7-diazaspiro[3.4]octan-7-yl)piperidin-1-yl)-3-((1-methyl-1H-pyrazol-4-yl)amino)pyrazine-2-carboxamide]	97

same assay, conditions: oral dose 30 mg/kg, 24 h, blood, analysis method not given

Structure (SMILES)	% BTK Remaining [%]
CN1CCN([C@@H]2CCCN(c3cnc(C(N)=O)c(Nc4ccc(N5CCN(C[C@H]6CCN(c7ccc8c(c7)C(=O)N(C7CCC(=O)NC7=O)C8=O)C6)CC5)nc4)n3)C2)C1=O (some centres unmarked) [Compound 113]	59

same assay, conditions: oral dose 30 mg/kg, 24 h, blood, flow cytometry

Structure (SMILES)	% BTK Remaining [%]
NC(=O)c1ncc(N2CCC[C@@H](N3CCOC3=O)C2)nc1Nc1ccc(C2CCN(CC3CCN(c4ccc5c(=O)n(C6CCC(=O)NC6=O)ccc5c4)CC3)CC2)cc1 (some centres unmarked) [Compound 153]	33
CN1CCN([C@@H]2CCCN(c3cnc(C(N)=O)c(Nc4ccc(C5CCN(C[C@@H]6CCN(c7ccc8c(c7)n(C)c(=O)n8[C@@H]7CCC(=O)NC7=O)C6)CC5)cc4)n3)C2)C1=O [Compound 199]	20
CN1CCN([C@@H]2CCCN(c3cnc(C(N)=O)c(Nc4ccc(C5CCN(C[C@H]6CCN(c7ccc8c(c7)CN(C7CCC(=O)NC7=O)C8=O)C6)CC5)cc4)n3)C2)C1=O (some centres unmarked) [Compound 117]	49
Cn1cc(Nc2nc(N3CCC[C@@H](N4CCC5(CN(CC6CCN(c7ccc8c(=O)n(C9CCC(=O)NC9=O)ccc8c7)CC6)C5)C4=O)C3)cnc2C(N)=O)cn1 (some centres unmarked) [Compound 145]	100
CN1CCN([C@@H]2CCCN(c3cnc(C(N)=O)c(Nc4ccc(C5CCN(C[C@H]6C[C@H](Nc7cccc8c7C(=O)N([C@@H]7CCC(=O)NC7=O)C8=O)C6)CC5)cc4)n3)C2)C1=O [Compound 202]	79
O=C1CC[C@H](N2C(=O)c3ccc(N4CC[C@H](CN5CCC(c6ccc(Nc7nc(-c8nccs8)cn8ccnc78)cc6)CC5)C4)cc3C2=O)C(=O)N1 [Compound 203]	95
CN1CCN([C@@H]2CCCN(c3cnc(C(N)=O)c(Nc4ccc(C5CCN(CC6CN(c7ccc8c(=O)n(C9CCC(=O)NC9=O)ccc8c7)C6)CC5)cc4)n3)C2)C1=O (some centres unmarked) [Compound 116]	39
Cn1c(=O)n([C@@H]2CCC(=O)NC2=O)c2ccc(N3CC[C@H](CN4CCC(c5ccc(Nc6nc(N7CCCCC7)cnc6C(N)=O)cc5)CC4)C3)cc21 [Compound 196]	33
NC(=O)c1ncc(N2CCCC(N3CCCC3=O)C2)nc1Nc1ccc(C2CCN(C[C@@H]3CCN(c4ccc5c(c4)C(=O)N(C4CCC(=O)NC4=O)C5=O)C3)CC2)cc1 (some centres unmarked) [Compound 146]	37
CN1CCN([C@@H]2CCCN(c3cnc(C(N)=O)c(Nc4ccc(C5CCN(C[C@H]6CCN(c7ccc8c(c7)n(C)c(=O)n8[C@@H]7CCC(=O)NC7=O)C6)CC5)cc4)n3)C2)C1=O [Compound 198]	25
NC(=O)c1ncc(N2CCC[C@H](N3CCCC3=O)C2)nc1Nc1ccc(C2CCN(CC3CCN(c4ccc5c(=O)n(C6CCC(=O)NC6=O)ccc5c4)CC3)CC2)cc1 (some centres unmarked) [Compound 144]	29
Cn1c(=O)n([C@@H]2CCC(=O)NC2=O)c2ccc(N3CC[C@@H](CN4CCC(c5ccc(Nc6nc(N7CCCCC7)cnc6C(N)=O)cc5)CC4)C3)cc21 [Compound 197]	13

same assay, conditions: oral dose 30 mg/kg, 24 h, splenocytes, HTRF

Structure (SMILES)	% BTK Remaining [%]
CN1CCN([C@@H]2CCCN(c3cnc(C(N)=O)c(Nc4ccc(C5CCN(CC6CCN(c7ccc(OC8CCC(=O)NC8=O)cn7)CC6)CC5)cc4)n3)C2)C1=O (some centres unmarked) [Compound 165]	29
CN1CCN([C@@H]2CCCN(c3cnc(C(N)=O)c(Nc4ccc(N5CCN(C[C@H]6CCN(c7ccc8c(c7)C(=O)N(C7CCC(=O)NC7=O)C8=O)C6)CC5)nc4)n3)C2)C1=O (some centres unmarked) [Compound 113]	52
NC(=O)c1ncc(N2CCC3(COC3)C2)nc1Nc1ccc(C2CCN(C[C@H]3CCN(c4ccc5c(c4)C(=O)N(C4CCC(=O)NC4=O)C5=O)C3)CC2)cc1 (some centres unmarked) [Compound 176]	48
NC(=O)c1ncc(N2CCC(F)(F)C(CO)C2)nc1Nc1ccc(C2CCN(C[C@H]3CCN(c4ccc5c(c4)C(=O)N(C4CCC(=O)NC4=O)C5=O)C3)CC2)cc1 (some centres unmarked) [Compound 175]	62
NC(=O)c1ncc(N2CCC[C@@H](N3CCCC3=O)C2)nc1Nc1ccc(N2CC(C3CCN(c4ccc5c(c4)C(=O)N(C4CCC(=O)NC4=O)C5=O)CC3)C2)nc1 (some centres unmarked) [Compound 168]	84
CN1CCN([C@@H]2CCCN(c3cnc(C(N)=O)c(Nc4cnc(N5CCN(C[C@H]6CCN(c7ccc8c(c7)C(=O)N([C@@H]7CCC(=O)NC7=O)C8=O)C6)CC5)nc4)n3)C2)C1=O [Compound 204]	87
CN1CCN([C@@H]2CCCN(c3cnc(C(N)=O)c(Nc4ccc(C5CCN(CC6CCN(c7cnn(C8CCC(=O)NC8=O)c(=O)c7)CC6)CC5)cc4)n3)C2)C1=O (some centres unmarked) [Compound 120]	59
Cc1cc(Nc2nc(N3CCC[C@@H](N4CCC5(CCN(CC6CCN(c7ccc8c(c7)C(=O)N(C7CCC(=O)NC7=O)C8=O)CC6)CC5)C4=O)C3)cnc2C(N)=O)sn1 (stereo partly drawn) [compound 205, 5-[(3R)-3-[8-({1-[2-(2,6-dioxopiperidin-3-yl)-1,3-dioxoisoindol-5-yl]piperidin-4-yl}methyl)-1-oxo-2,8-diazaspiro[4.5]decan-2-yl]piperidin-1-yl]-3-[(3-methyl-1,2-thiazol-5-yl)amino]pyrazine-2-carboxamide]	66

same assay, conditions: oral dose 90 mg/kg, 6 h, splenocytes, HTRF

Structure (SMILES)	% BTK Remaining [%]
CN1CCN([C@@H]2CCCN(c3cnc(C(N)=O)c(Nc4ccc(C5CCN(CCC6CCN(c7ccc8c(c7)C(=O)N(C7CCC(=O)NC7=O)C8=O)CC6)CC5)cc4)n3)C2)C1=O (some centres unmarked) [Compound 41]	15
CN1CCN([C@@H]2CCCN(c3cnc(C(N)=O)c(Nc4ccc(C5CCN(C[C@@H]6CCN(c7ccc8c(c7)C(=O)N(C7CCC(=O)NC7=O)C8=O)C6)CC5)cc4)n3)C2)C1=O (some centres unmarked) [Compound 52]	2
CN1CCN([C@@H]2CCCN(c3cnc(C(N)=O)c(Nc4ccc(C5CCN(C[C@H]6CCCN(c7ccc8c(c7)C(=O)N(C7CCC(=O)NC7=O)C8=O)C6)CC5)cc4)n3)C2)C1=O (some centres unmarked) [Compound 50]	9
CN1CCN([C@@H]2CCCN(c3cnc(C(N)=O)c(Nc4ccc(C5CCN(CCC6CN(c7ccc8c(c7)C(=O)N(C7CCC(=O)NC7=O)C8=O)C6)CC5)cc4)n3)C2)C1=O (some centres unmarked) [Compound 45]	8
CN1CCN([C@@H]2CCCN(c3cnc(C(N)=O)c(Nc4ccc(N5CCN(C[C@H]6CCCN(c7ccc8c(c7)C(=O)N(C7CCC(=O)NC7=O)C8=O)C6)CC5)cc4)n3)C2)C1=O (some centres unmarked) [Compound 48]	7

Reference: US12600732B2, “Bifunctional compounds for degrading BTK via ubiquitin proteosome pathway” (NURIX THERAPEUTICS, INC., priority 2019, dated 2026)
